Measurements taken from PubChem BioAssay (NCI).
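These data come from cells grown in 96-well plates and exposed to compound for 48 hours at five concentrations. At the GI50, growth is halved. At the TGI there is no net growth.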

How the values were obtained:
Experiment in all cases: NCI anticancer screen, dose series, 48 h
MDA-MB-435 = system: MDA-MB-435
COLO 205 colon = system: COLO 205 colon
HT29 colon = system: HT29 colon
MALME-3M melanoma = system: MALME-3M melanoma
OVCAR-3 ovarian = system: OVCAR-3 ovarian
SK-MEL-5 melanoma = system: SK-MEL-5 melanoma
HCT-15 colon = system: HCT-15 colon
LOX IMVI melanoma = system: LOX IMVI melanoma
MDA-MB-231 breast = system: MDA-MB-231 breast
SF-295 CNS = system: SF-295 CNS
EKVX NSCLC = system: EKVX NSCLC
SNB-19 CNS = system: SNB-19 CNS
ACHN renal = system: ACHN renal
CCRF-CEM leukemia = system: CCRF-CEM leukemia
SK-MEL-2 melanoma = system: SK-MEL-2 melanoma
MOLT-4 leukemia = system: MOLT-4 leukemia
HOP-92 NSCLC = system: HOP-92 NSCLC
HS 578T breast = system: HS 578T breast
CAKI-1 renal = system: CAKI-1 renal
SN12C renal = system: SN12C renal
HCT-116 colon = system: HCT-116 colon
NCI-H460 lung = system: NCI-H460 lung
DU-145 prostate = system: DU-145 prostate
A549 NSCLC = system: A549 NSCLC
TK-10 renal = system: TK-10 renal
K-562 leukemia = system: K-562 leukemia
HCC-2998 colon = system: HCC-2998 colon
SK-OV-3 ovarian = system: SK-OV-3 ovarian
RXF 393 renal = system: RXF 393 renal
PC-3 prostate = system: PC-3 prostate
OVCAR-8 ovarian = system: OVCAR-8 ovarian
T-47D breast = system: T-47D breast
UACC-62 melanoma = system: UACC-62 melanoma
UO-31 renal = system: UO-31 renal
SW-620 colon = system: SW-620 colon
BT-549 breast = system: BT-549 breast
MCF7 breast = system: MCF7 breast
OVCAR-5 ovarian = system: OVCAR-5 ovarian
OVCAR-4 ovarian = system: OVCAR-4 ovarian
HL-60(TB) leukemia = system: HL-60(TB) leukemia
SR leukemia = system: SR leukemia
786-0 renal = system: 786-0 renal
UACC-257 melanoma = system: UACC-257 melanoma
U251 CNS = system: U251 CNS
IGROV1 ovarian = system: IGROV1 ovarian
SF-539 CNS = system: SF-539 CNS
M14 melanoma = system: M14 melanoma
NCI-H522 lung = system: NCI-H522 lung
SF-268 CNS = system: SF-268 CNS
SNB-75 CNS = system: SNB-75 CNS
RPMI-8226 leukemia = system: RPMI-8226 leukemia
NCI/ADR-RES ovarian = system: NCI/ADR-RES ovarian
NCI-H226 lung = system: NCI-H226 lung
KM12 colon = system: KM12 colon
A498 renal = system: A498 renal
SK-MEL-28 melanoma = system: SK-MEL-28 melanoma
HOP-62 NSCLC = system: HOP-62 NSCLC

Question: Which results are given for `COc1ccc(CCOc2cc3c(cc2OC)CCN(C(=O)NCc2cocn2)C3c2ccc(C)cc2C)cc1` (centres undefined)?
Answer: GI50 (MDA-MB-435): 0.296 µM; TGI (MDA-MB-435): 0.919 µM; GI50 (COLO 205 colon): 0.835 µM; TGI (COLO 205 colon): 2.76 µM; GI50 (HT29 colon): 0.371 µM; TGI (HT29 colon): 2.15 µM; GI50 (MALME-3M melanoma): 1.49 µM; TGI (MALME-3M melanoma): 11.7 µM; GI50 (OVCAR-3 ovarian): 0.603 µM; TGI (OVCAR-3 ovarian): 10.3 µM; GI50 (SK-MEL-5 melanoma): 0.509 µM; TGI (SK-MEL-5 melanoma): 1.39 µM; GI50 (HCT-15 colon): 0.407 µM; TGI (HCT-15 colon): > 37.5 µM; GI50 (LOX IMVI melanoma): 0.388 µM; TGI (LOX IMVI melanoma): 4.61 µM; GI50 (MDA-MB-231 breast): 0.834 µM; TGI (MDA-MB-231 breast): 6.49 µM; GI50 (SF-295 CNS): 0.897 µM; TGI (SF-295 CNS): 7.03 µM; GI50 (EKVX NSCLC): 3.14 µM; TGI (EKVX NSCLC): > 100 µM; GI50 (SNB-19 CNS): 1.6 µM; TGI (SNB-19 CNS): 21.9 µM; GI50 (ACHN renal): 0.628 µM; TGI (ACHN renal): 8.89 µM; GI50 (CCRF-CEM leukemia): 0.458 µM; TGI (CCRF-CEM leukemia): 9.66 µM; GI50 (SK-MEL-2 melanoma): 0.946 µM; TGI (SK-MEL-2 melanoma): 3.89 µM; GI50 (MOLT-4 leukemia): 0.537 µM; TGI (MOLT-4 leukemia): > 24.8 µM; GI50 (HOP-92 NSCLC): 3.47 µM; TGI (HOP-92 NSCLC): 18.2 µM; GI50 (HS 578T breast): 0.845 µM; TGI (HS 578T breast): 5.15 µM; GI50 (CAKI-1 renal): 0.74 µM; TGI (CAKI-1 renal): 7.24 µM; GI50 (SN12C renal): 0.831 µM; TGI (SN12C renal): 4.85 µM; GI50 (HCT-116 colon): 0.404 µM; TGI (HCT-116 colon): 21.8 µM; GI50 (NCI-H460 lung): 0.374 µM; TGI (NCI-H460 lung): 3.81 µM; GI50 (DU-145 prostate): 0.79 µM; TGI (DU-145 prostate): 5.89 µM; GI50 (A549 NSCLC): 1.08 µM; TGI (A549 NSCLC): > 100 µM; GI50 (TK-10 renal): 2.96 µM; TGI (TK-10 renal): 26.7 µM; GI50 (K-562 leukemia): 0.355 µM; TGI (K-562 leukemia): > 55.2 µM; GI50 (HCC-2998 colon): 1.32 µM; TGI (HCC-2998 colon): > 35 µM; GI50 (SK-OV-3 ovarian): 1.26 µM; TGI (SK-OV-3 ovarian): 40.7 µM; GI50 (RXF 393 renal): 0.425 µM; TGI (RXF 393 renal): 2.54 µM; GI50 (PC-3 prostate): 0.631 µM; TGI (PC-3 prostate): > 35.1 µM; GI50 (OVCAR-8 ovarian): 0.358 µM; TGI (OVCAR-8 ovarian): 10.1 µM; GI50 (T-47D breast): 1.06 µM; TGI (T-47D breast): 9.02 µM; GI50 (UACC-62 melanoma): 0.495 µM; TGI (UACC-62 melanoma): 5.93 µM; GI50 (UO-31 renal): 1.18 µM; TGI (UO-31 renal): 14.2 µM; GI50 (SW-620 colon): 0.507 µM; TGI (SW-620 colon): > 100 µM; GI50 (BT-549 breast): 1.01 µM; TGI (BT-549 breast): 3.57 µM; GI50 (MCF7 breast): 0.452 µM; TGI (MCF7 breast): > 38.7 µM; GI50 (OVCAR-5 ovarian): 1.35 µM; TGI (OVCAR-5 ovarian): > 100 µM; GI50 (OVCAR-4 ovarian): 1.51 µM; TGI (OVCAR-4 ovarian): > 100 µM; GI50 (HL-60(TB) leukemia): 0.273 µM; TGI (HL-60(TB) leukemia): 0.833 µM; GI50 (SR leukemia): 0.341 µM; TGI (SR leukemia): 2.03 µM; GI50 (786-0 renal): 0.617 µM; TGI (786-0 renal): 8.11 µM; GI50 (UACC-257 melanoma): 1.39 µM; TGI (UACC-257 melanoma): 19.8 µM; GI50 (U251 CNS): 0.605 µM; TGI (U251 CNS): 4.53 µM; GI50 (IGROV1 ovarian): 0.905 µM; TGI (IGROV1 ovarian): > 100 µM; GI50 (SF-539 CNS): 0.346 µM; TGI (SF-539 CNS): 1.63 µM; GI50 (M14 melanoma): 0.765 µM; TGI (M14 melanoma): 5.74 µM; GI50 (NCI-H522 lung): 0.243 µM; TGI (NCI-H522 lung): 0.634 µM; GI50 (SF-268 CNS): 0.94 µM; TGI (SF-268 CNS): 8.92 µM; GI50 (SNB-75 CNS): 0.761 µM; TGI (SNB-75 CNS): 5.26 µM; GI50 (RPMI-8226 leukemia): 0.37 µM; TGI (RPMI-8226 leukemia): 1.66 µM; GI50 (NCI/ADR-RES ovarian): 0.61 µM; TGI (NCI/ADR-RES ovarian): > 34.4 µM; GI50 (NCI-H226 lung): 1.02 µM; TGI (NCI-H226 lung): 5.16 µM; GI50 (KM12 colon): 0.542 µM; TGI (KM12 colon): 8.2 µM; GI50 (A498 renal): 1.48 µM; TGI (A498 renal): 6.43 µM; GI50 (SK-MEL-28 melanoma): 1.01 µM; TGI (SK-MEL-28 melanoma): 7.29 µM; GI50 (HOP-62 NSCLC): 1.02 µM; TGI (HOP-62 NSCLC): 17.1 µM
